Legend:
[1] = Inhibition of apoE4 expressed in rat PC12 cells assessed as reversal of mitochondrial impairment; type: cell-based; settings: pc-12
[2] = Inhibition of apoE4 expressed in Neuro2a cells assessed as increase in COX1 level by Western blot assay; type: cell-based; settings: N2a

| SMILES | EC50 [1] | IC50 [2] |
| --- | --- | --- |
| Cn1nc(CC(=O)Nc2cccc(-c3ccc(C#N)cc3)c2)c2ccccc2c1=O | < 1 nM |  |
| Cn1nc(CC(=O)Nc2ccc(CN3CCN(C(=O)OC(C)(C)C)CC3)cc2)c2ccccc2c1=O |  | 41 nM |
